Measured values as given in US20230203081A1, “LINCOSAMIDE ANTIBIOTICS AND USES THEREOF” (President and Fellows of Harvard College, priority 2020, published 2023).
Converted amounts (≈) assume the structure as drawn.

What was measured:
Format in all cases: cell-based
S. aureus BAA 977 iErmA = assay: microbe, parasite or virus in culture; conditions: Staphylococcus aureus, BAA-977 / MRSA
Outline: (§1)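 Per CLSI, MICs by broth microdilution or agar dilution; strains other than streptococci and anaerobes were sub-cultured overnight at 35° C on blood agar, with a final broth inoculum of 5×10^5 CFU/mL.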

E. coli ΔTolC = assay: microbe, parasite or virus in culture; conditions: Escherichia coli, E. coli HAV#038; ΔTolC
Outline: as §1

S. aureus MP-549 msrA = assay: microbe, parasite or virus in culture; conditions: Staphylococcus aureus, MP549MSRA; S. aureus HAV#032, MP-549; MSR(A)
Outline: as §1

E. coli armA = assay: microbe, parasite or virus in culture; conditions: Escherichia coli, E. coli HAV#056; Clinical, armA
Outline: as §1

[1] = tested on: broad panel of different clinical isolates; assay: microbe, parasite or virus in culture
Outline: as §1

K. oxytoca Clinical = assay: MIC (broth microdilution or agar dilution, CLSI); conditions: Klebsiella oxytoca; K. oxytoca HAV#450; Clinical; read-out: MIC
Outline: as §1

[2] = tested on: S. aureus ATCC BAA-1707 (MRSA); assay: MIC (broth microdilution or agar dilution, CLSI); conditions: Staphylococcus aureus; S. aureus HAV#016, ATCC BAA-1707; MRSA; read-out: MIC
Outline: as §1

S. aureus ATCC 29213 = assay: MIC (broth microdilution or agar dilution, CLSI); conditions: Staphylococcus aureus, ATCC29213, S. aureus HAV#001, ATCC 29213, MP-549; read-out: MIC
Outline: as §1

S. pneumoniae ATCC 49619 = assay: MIC (broth microdilution or agar dilution, CLSI); conditions: Streptococcus pneumoniae, ATCC49619, S. pneumoniae HAV#003, ATCC 49619; read-out: MIC
Outline: as §1

S. pneumoniae ATCC 6303 = assay: MIC (broth microdilution or agar dilution, CLSI); conditions: Streptococcus pneumoniae, ATCC6303; S. pneumoniae HAV#351, ATCC 6303; read-out: MIC
Outline: as §1

[3] = tested on: S. pyogenes MMX 946; cErmB; assay: MIC (broth microdilution or agar dilution, CLSI); conditions: Streptococcus pyogenes; S. pyogenes HAV#035, MMX 946; cErmB, mac-resistant; read-out: MIC
Outline: as §1

S. aureus ATCC 700699 = assay: MIC (broth microdilution or agar dilution, CLSI); conditions: Staphylococcus aureus, ATCC 700699 / VISA
Outline: as §1

E. coli LptD = assay: MIC (broth microdilution or agar dilution, CLSI); conditions: Escherichia coli, E. coli HAV#040; LptD; read-out: MIC
Outline: as §1

S. pyogenes ATCC 19615 = assay: MIC (broth microdilution or agar dilution, CLSI); conditions: Streptococcus pyogenes, ATCC19615, S. pyogenes HAV#004, ATCC 19615; read-out: MIC
Outline: as §1

## CO/N=C(\C(=O)N[C@@H]1C(=O)N2C(C(=O)O)=C(CSc3nc(=O)c(=O)[nH]n3C)CS[C@H]12)c1csc(N)n1 [Ceftriaxone]
S. aureus BAA 977 iErmA
  MIC: 2 µg/mL (≈ 3.61 µM)
E. coli ΔTolC
  MIC: ≤ 0.06 µg/mL
S. aureus MP-549 msrA
  MIC: > 128 µg/mL
E. coli armA
  MIC: ≤ 0.06 µg/mL
[1]; Acinetobacter baumannii, A. baumannii HAV#651, Clinical
  MIC: 4 µg/mL (≈ 7.21 µM)
[1]; Acinetobacter baumannii, A. baumannii HAV#652 Clinical
  MIC: 16 µg/mL (≈ 28.9 µM)
[1]; Acinetobacter baumannii, A. baumannii HAV#653, Clinical
  MIC: 2 µg/mL (≈ 3.61 µM)
[1]; Acinetobacter baumannii, A. baumannii HAV#654, Clinical
  MIC: 4 µg/mL (≈ 7.21 µM)
[1]; Acinetobacter baumannii, A. baumannii HAV#655, Clinical
  MIC: 64 µg/mL (≈ 115 µM)
[1]; Acinetobacter baumannii, A. baumannii HAV#656, Clinical
  MIC: 64 µg/mL (≈ 115 µM)
[1]; Acinetobacter baumannii, A. baumannii HAV#657, Clinical
  MIC: 64 µg/mL (≈ 115 µM)
[1]; Acinetobacter baumannii, A. baumannii HAV#658, Clinical
  MIC: 16 µg/mL (≈ 28.9 µM)
[1]; Acinetobacter baumannii, A. baumannii HAV#659, Clinical
  MIC: 32 µg/mL (≈ 57.7 µM)
[1]; Acinetobacter baumannii, A. baumannii HAV#660, Clinical
  MIC: 32 µg/mL (≈ 57.7 µM)
[1]; Acinetobacter baumannii, A. baumannii HAV#661, Clinical
  MIC: 2 µg/mL (≈ 3.61 µM)
[1]; Acinetobacter baumannii, A. baumannii HAV#662, Clinical
  MIC: 32 µg/mL (≈ 57.7 µM)
[1]; Acinetobacter baumannii, A. baumannii HAV#663, Clinical
  MIC: 16 µg/mL (≈ 28.9 µM)
[1]; Acinetobacter baumannii, A. baumannii HAV#664, Carbapenem R
  MIC: 64 µg/mL (≈ 115 µM)
[1]; Enterococcus faecalis, E. faecalis HAV#607, Clinical
  MIC: > 256 µg/mL
[1]; Enterococcus faecalis, E. faecalis HAV#608, Clinical
  MIC: > 256 µg/mL
[1]; Enterococcus faecalis, E. faecalis HAV#609, Clinical
  MIC: > 256 µg/mL
[1]; Enterococcus faecalis, E. faecalis HAV#610, Clinical
  MIC: > 256 µg/mL
[1]; Enterococcus faecalis, S. faecalis 5060, Line R & Vanco R
  MIC: > 256 µg/mL
[1]; Enterococcus faecalis, S. faecalis 5074, Line R
  MIC: 256 µg/mL (≈ 462 µM)
[1]; Enterococcus faecalis, VRE, E. faecalis HAV#606, Clinical
  MIC: > 256 µg/mL
[1]; Enterococcus faecium, E. faecium HAV#327, Clinical
  MIC: 0.5 µg/mL (≈ 0.902 µM)
[1]; Enterococcus faecium, E. faecium HAV#328, Clinical
  MIC: > 128 µg/mL
[1]; Enterococcus faecium, E. faecium HAV#329, Clinical
  MIC: > 256 µg/mL
[1]; Escherichia coli, E. coli HAV#503, Clinical
  MIC: > 128 µg/mL
[1]; Escherichia coli, E. coli HAV#511, Clinical
  MIC: 16 µg/mL (≈ 28.9 µM)
[1]; Escherichia coli, E. coli HAV#512, Clinical
  MIC: < 0.06 µg/mL
[1]; Escherichia coli, E. coli HAV#513, Clinical
  MIC: 0.125 µg/mL (≈ 0.225 µM)
[1]; Escherichia coli, E. coli HAV#514, Clinical
  MIC: 0.125 µg/mL (≈ 0.225 µM)
[1]; Escherichia coli, E. coli HAV#516, ESBL-producing
  MIC: 64 µg/mL (≈ 115 µM)
[1]; Klebsiella pneumoniae, K. pneumoniae HAV#404, Clinical
  MIC: 64 µg/mL (≈ 115 µM)
[1]; Klebsiella pneumoniae, K. pneumoniae HAV#405, Clinical
  MIC: 64 µg/mL (≈ 115 µM)
[1]; Klebsiella pneumoniae, K. pneumoniae HAV#406, Clinical
  MIC: < 0.06 µg/mL
[1]; Klebsiella pneumoniae, K. pneumoniae HAV#407, Clinical
  MIC: 1 µg/mL (≈ 1.8 µM)
[1]; Klebsiella pneumoniae, K. pneumoniae HAV#408, Clinical
  MIC: 2 µg/mL (≈ 3.61 µM)
[1]; Klebsiella pneumoniae, K. pneumoniae HAV#409, ESBL-producing
  MIC: 128 µg/mL (≈ 231 µM)
[1]; Neisseria gonorrhoeae, N. gonorrhoeae HAV#701, Clinical
  MIC: 0.125 µg/mL (≈ 0.225 µM)
[1]; Neisseria gonorrhoeae, N. gonorrhoeae HAV#702, Clinical
  MIC: 0.25 µg/mL (≈ 0.451 µM)
[1]; Staphylococcus aureus, MRSA, S. aureus HAV#017, MRSA Col(Colindale, England)
  MIC: > 128 µg/mL
[1]; Staphylococcus aureus, MRSA, S. aureus HAV#218, Line R
  MIC: 32 µg/mL (≈ 57.7 µM)
[1]; Staphylococcus aureus, MRSA, S. aureus HAV#220, Line R
  MIC: > 128 µg/mL
[1]; Staphylococcus aureus, MSSA, S. aureus HAV#219, Line R
  MIC: 2 µg/mL (≈ 3.61 µM)
[1]; Staphylococcus aureus, S. aureus HAV#052, mecA, norA, fosB, blaZ
  MIC: 64 µg/mL (≈ 115 µM)
[1]; Staphylococcus aureus, S. aureus HAV#053 mecA, norA, fosB
  MIC: 128 µg/mL (≈ 231 µM)
[1]; Staphylococcus aureus, S. aureus HAV#054, mecA, norA, spcl, aad1, fosB, ermA, aac6′-aph2″, blaZ
  MIC: > 256 µg/mL
[1]; Staphylococcus aureus, S. aureus HAV#211, Clinical
  MIC: > 64 µg/mL
[1]; Staphylococcus aureus, S. aureus HAV#212, Clinical
  MIC: 32 µg/mL (≈ 57.7 µM)
[1]; Staphylococcus aureus, S. aureus HAV#213, Clinical
  MIC: 1 µg/mL (≈ 1.8 µM)
[1]; Staphylococcus aureus, S. aureus HAV#214, Clinical
  MIC: 4 µg/mL (≈ 7.21 µM)
[1]; Staphylococcus aureus, S. aureus HAV#215, Clinical
  MIC: 1 µg/mL (≈ 1.8 µM)
[1]; Staphylococcus aureus, S. aureus HAV#216, Clinical, cfr
  MIC: 128 µg/mL (≈ 231 µM)
[1]; Staphylococcus aureus, S. aureus HAV#217, cfr
  MIC: 64 µg/mL (≈ 115 µM)
[1]; Staphylococcus epidermidis, S. epidermidis HAV# 275 Clinical, cfr
  MIC: > 128 µg/mL
[1]; Staphylococcus epidermidis, S. epidermidis HAV# 276, cfr
  MIC: > 128 µg/mL
[1]; Staphylococcus epidermidis, S. epidermidis HAV#277, Line R
  MIC: > 128 µg/mL
[1]; Staphylococcus epidermidis, S. epidermidis HAV#278 Line R
  MIC: > 128 µg/mL
[1]; Staphylococcus epidermidis, S. epidermidis HAV#279, Line R
  MIC: 4 µg/mL (≈ 7.21 µM)
[1]; Staphylococcus haemolyticus, S. haemolyticus 5052, Line R & Methicillin R
  MIC: > 256 µg/mL
[1]; Streptococcus pneumoniae, ATCC700673, S. pneumoniae HAV#352, ATCC 700673, MDR
  MIC: 1 µg/mL (≈ 1.8 µM)
[1]; Streptococcus pneumoniae, ATCCBAA255, S. pneumoniae HAV#354, ATCC-BAA-255
  MIC: 1 µg/mL (≈ 1.8 µM)
[1]; Streptococcus pneumoniae, ATCCBAA334, S. pneumoniae HAV#353, ATCC-BAA-334
  MIC: 1 µg/mL (≈ 1.8 µM)
[1]; Streptococcus pneumoniae, S. pneumoniae HAV#356, Clinical
  MIC: 1 µg/mL (≈ 1.8 µM)
[1]; Streptococcus pneumoniae, S. pneumoniae HAV#358, Clinical
  MIC: 1 µg/mL (≈ 1.8 µM)
K. oxytoca Clinical
  MIC: 64 µg/mL (≈ 115 µM)
[2]
  MIC: 64 µg/mL (≈ 115 µM)
S. aureus ATCC 29213
  MIC: 2 µg/mL (≈ 3.61 µM)
S. pneumoniae ATCC 49619
  MIC: 0.06 µg/mL (≈ 0.108 µM)
S. pneumoniae ATCC 6303
  MIC: 0.06 µg/mL (≈ 0.108 µM)
[3]
  MIC: ≤ 0.03 µg/mL
S. aureus ATCC 700699
  MIC: > 128 µg/mL
E. coli LptD
  MIC: ≤ 0.06 µg/mL
S. pyogenes ATCC 19615
  MIC: 0.06 µg/mL (≈ 0.108 µM)
